US6703413B2 (Rhode Island Hospital, priority 1999, dated 2004)

Columns and labels:
[1] = system: PA-1 human ovarian tumor cells; assay: Phosphotidylserine externalization, Annexin-V FITC binding; format: cell-based; conditions: PA-1, 24 h exposure
Experimental: (§1) Three×10^5 cells were seeded in plastic tissue culture flasks. […] Control cultures received an appropriate volume of Kollidine-17P. After an additional 24 h, cells were harvested and phosphotidylserine externalization determined by assessing Annexin-V FITC binding using cytofluorometric techniques. Each bar represents the mean±SE of four determinations. ** p≦0.01, *** p0.001
(§2) Cell membrane phosphotidylserine externalization, as a reflection of the potential induction of apoptosis, was assessed by flow cytometry methods using the ApoAlert® Annexin-V/FITC assay kit. Briefly, 1×10^6 cells were incubated for 24 h in tissue culture medium containing serum. […] Control cultures received 5% Kollidon 17 PF alone. Twenty-four hours later, all cells were harvested by trypsinization. The harvested cells were resuspended in 200 μl of binding buffer and then incubated for 5-15 min in a solution containing 1 μg/ml Annexin-V FITC at room temperature in the dark. The cells were then analyzed to quantitate Annexin-V binding by cytofluorometric techniques that utilized FACScan using the ModFit LT program with statistical analysis as described above.

[2] = system: SKOV-3 human ovarian tumor cells; assay: as above; format: cell-based; conditions: SKOV-3, 24 h exposure
Experimental: as §1, §2

NIH-3T3 cells = assay: as above; format: cell-based, murine; conditions: NIH-3T3, 24 h exposure, non-significant
Experimental: as §1, §2

PA-1 cells = assay: PARP cleavage, Western-blot; format: cell-based, human; conditions: PA-1, 24 h exposure to 50 μM or 100 μM
Experimental: (§3) Two×10^6 cells were seeded in 150 cm^2 tissue culture flasks. […] After an additional twenty-four hours, cells were harvested, cell number determined, and aliquots derived from equal cell numbers generated from each exposure condition. Total proteins from these whole cell lysates were separated by SDS-PAGE and transferred to nitrocellulose filters. Filters were then immunoblotted to detect intact PARP protein and cleavage fragments by using the clone C-2-10 mouse monoclonal anti-PARP antibody (Zymed Laboratories, San Francisco, Calif.). The resulting protein-antibody complexes were visualized by chemiluminescence techniques.
(§4) Western-blot analysis was used to assess of PARP cleavage. Two×10^6 cells were seeded into separate 75 cm^2 tissue culture flasks containing 20 ml of tissue culture media plus serum. […] Twenty-four hours after the addition of Taurolidine, cells were harvested cell number determined, and aliquots containing an equal cell number were generated from each exposure condition. Total proteins from whole cell lysates generated from these aliquots were separated by SDS-PAGE and electrotransferred to nitrocellulose filters. Filters were then processed to detect intact PARP protein and cleavage fragments by using the clone C-2-10 mouse monoclonal anti-PARP antibody (Zymed Laboratories, San Francisco, Calif.). […]

SKOV-3 cells = assay: PARP cleavage, Western-blot; format: cell-based, human; conditions: SKOV-3, 24 h exposure to 50 μM or 100 μM
Experimental: as §3, §4

[3] = Taurolidine-induced toxicity, 3 d i.p. bolus injection regimen; format: in vivo; conditions: for mortality (%): i.p., 3 consecutive days
Experimental: Control animals received 1 ml injections of 5% Kollidon 17 PF alone. Animals were examined daily and body weight recorded twice weekly. A reduction in body weight of greater than 10% was considered significant. The maximally tolerated dose (MTD) was considered to be the dose which produced ˜10% mortality.
During the injection regimen, and daily thereafter for 30 d, mice were weighed and examined. Experiments were repeated a minimum of three times and mortality and weight loss data pooled.

[4] = system: SKOV-3 human ovarian tumor xenografts; assay: Therapeutic effectiveness against i.p. human ovarian tumor xenografts; format: in vivo, female nude mice
Source text: Fourteen days following the final Taurolidine injection, mice in all groups were sacrificed and the peritoneal cavity examined for the presence of tumors. Each experimental was repeated three times and the pooled number of animals in each group ranged from 15-21.
Fourteen days following the final Taurolidine injection, mice in all groups were sacrificed, i.p. ovarian tumor xenografts removed and tumor weighed. Each experiment was repeated three times and the pooled number of animals in each group ranged from 15-21. Each bar represents the mean (±SE) tumor weight of 15-21 animals. ***p≦0.001, **** p≦0.0001.
To evaluate therapeutic effectiveness, mice received a single intraperitoneal injection of 5×10^6 SKOV-3 cells in a volume of 0.5 ml. Immediately thereafter, mice were randomly divided into treatment groups of 7 animals. […] Control animals received 1 ml injections of 5% Kollidon 17 PF alone. Animals were examined daily and body weight recorded twice weekly. […] The mean tumor weight for each treatment group was calculated and statistical analysis of differences in the mean tumor weight between treatment groups employed the Student's t-test. p-values of ≦0.05 were considered significant.
Studies next evaluated the antineoplastic activity of this regimen in mice bearing i.p. human ovarian tumor xenografts derived from the SKOV-3 cell line. Mice were injected i.p. with 5×10^6 SKOV-3 cells. […] Fourteen days following the termination of Taurolidine therapy, mice were sacrificed and all i.p. tumors removed and weighed.

[5] = system: human Burkitt's lymphoma cell line, Daudi cell line; assay: Killing of non-anchorage-dependent tumor cells in suspension culture; format: cell-based; conditions: 10-20 μM for 72 hours
Experimental: Two different non-anchorage-dependent tumor cell lines (a human Burkitt's lymphoma cell line, and a Daudi cell line), and precancerous cell line (a human myelodysplastic cell line) were grown in suspension culture.

[6] = system: SKOV3 human ovarian tumor cell line; assay: Mouse model of recurrent ovarian cancer, intraperitoneal lavage; format: in vivo, Holland Sprague-Dawley mice; conditions: i.p. lavage from 5 days after 5×10^6 tumor cells, 3 times a day for 4 days, 30 mg/day
Experimental: Holland Sprague-Dawley mice were injected with 5×10^6 tumor cells (e.g., SKOV3 human ovarian tumor cell line) to mimic a condition of advanced ovarian cancer. […] At least a 75-80% reduction in tumor foci was observed.

[7] = system: activated human T-cell cultures; assay: Cytotoxic and apoptotic activity in normal primary cells; format: cell-based
Source text: (§5) This observation was confirmed using normal (non-tumor) primary cells derived from animals, which are known to be free of tumors.

[8] = system: normal murine bone marrow cultures; assay: as above; format: cell-based
Source text: as §5

[9] = system: human ovarian tumor cells; assay: Growth of established tumor cell colonies in vitro; format: cell-based; conditions: 24-hour exposure to 50 μM
Experimental: Parallel studies were carried out to assess whether disruption of cell adhesion played a role in the cytotoxic activity.

3T3 cells = assay: DNA fragmentation, agarose-gel electrophoresis; format: cell-based; conditions: identical regimen, 50 μM
[10] = system: MDR-transfected glioblastoma cells; assay: Cytotoxicity in drug resistant glioblastoma cells; conditions: 50 μM
Source text: The neoplastic cell lines used in the survey were standard tumor cell lines, e.g., PA1 human ovarian cell line, SKOV3 human ovarian cell line, HT29 human colon tumor cell line, DU145 human prostate tumor cell line, U251 human glioblastoma cell line, U251-MDR human glioblastoma cell line transfected with DNA encoding MDR, T98G human glioblastoma cell line, SP-1 human leukemia cell line, and Daudi human leukemia cell line.
Glioblastoma cells were transfected with a gene encoding multiple drug resistance (MDR).

[11] = therapy delayed for up to 3 d after tumor cell injection
[12] = therapy initiated on the day of tumor cell injection

SMILES: O=S1(=O)CCN(CN2CCS(=O)(=O)NC2)CN1 [Taurolidine, Bis-(1,1-dioxoperhydro-1,2,4-thiadiazinyl-4)methane]
- increase in Annexin-V binding [1]: 4 fold
- increase in Annexin-V binding [2]: 3 fold
- increase in Annexin-V binding (NIH-3T3 cells): ~5%
- PARP cleavage (PA-1 cells): resulted in PARP cleavage
- PARP cleavage (SKOV-3 cells): resulted in PARP cleavage
- mortality (%) ([3]; 10 mg/mouse/inj): 6%
- mortality (%) ([3]; 20 mg/mouse/inj): 13%
- mortality (%) ([3]; 25 mg/mouse/inj): 47%
- mortality (%) ([3]; 30 mg/mouse/inj): 100%
- tolerability ([3]; daily doses below 15 mg/mouse (~650 mg/kg), 3 d i.p. regimen): well-tolerated
- MTD ([3]; mouse, in vivo, ip): 20 mg/inj
- maximally tolerated dose (MTD) ([3]; mouse, in vivo, ip): 20 mg/mouse
- ascites formation ([4]; 20 mg/mouse/injection x 3 d i.p. from day of tumor cell injection): no evidence of ascites formation
- Mean tumor weight ([4]; 20 mg/mouse/injection x 3 d i.p. from day of tumor cell injection, nineteen days after injection): less than 50 mgs
- mean tumor size versus controls [4, 11]: significantly smaller than in controls
- mice tumor free upon sacrifice [4, 11]: approximately 10%
- tumor growth ([4]; therapy initiated 5 d after tumor cell injection (established i.p. tumors)): significantly inhibiting tumor growth
- mean tumor size in treated mice with tumors, smaller than control [4, 12]: approximately 40 fold
- treated mice with no evidence of disease upon sacrifice [4, 12]: ~80%
- cells died [5]: 50%
- reduction in tumor foci [6]: 75-80%
- cytotoxicity [7]: not cytotoxic in the high μM range
- concentrations required to inhibit cell proliferation ([8]; normal murine bone marrow): mM range
- cytotoxicity ([8]; normal murine bone marrow cultures): not cytotoxic in the high μM range
- cytotoxic effect against growth of established tumor cells [9]: significant cytotoxic effect
- DNA fragmentation (3T3 cells): not apparent
- cytotoxicity [10]: Significant cytotoxicity
